The test system of the first test is Hh pathway (Gli-responsive firefly luciferase reporter). The test can be described thus: Hh-dependent Gli-luciferase reporter assay in SAG-treated NIH3T3 Shh-Light II cells. Type of test: cell-based. As to conditions: SAG (200 nM)-treated NIH3T3 Shh-Light II cells, 48 h, normalized to Renilla; N.A. = Not Active. The method, then:
The inhibitory properties of the potential Smo antagonists 1–17 were investigated in a luciferase reporter assay that is widely used for characterizing Hh inhibitors. NIH3T3 Shh-Light II cells, stably incorporating a Gli-responsive firefly luciferase reporter (Gli-RE),[25] were treated with the synthetic Smo agonist SAG[24] alone or in combination with the selected small molecules to evaluate their dose–response ability to suppress Hh pathway. […] We excluded the possibility that inhibition activity in this assay was mediated by cytotoxicity because no decrease was shown in the luciferase assay control Renilla as observed instead for 13–17.
The luciferase assay was performed in Shh-Light II cells, stably incorporating a Gli-responsive luciferase reporter and the pRL-TK Renilla (normalization control), treated for 48 h with SAG (200 nM) and the studied compounds. Luciferase and Renilla activity were assayed with a dual-luciferase assay system according to the manufacturer's instruction (Biotium Inc., Hayward, CA, USA). Results are expressed as luciferase/Renilla ratios and represent the mean±S.D. of three experiments, each performed in triplicate.
(In general: In a reporter assay the amount or activity of a reporter protein is the signal.)
T1 sequence (Q99835 28-787 D473H): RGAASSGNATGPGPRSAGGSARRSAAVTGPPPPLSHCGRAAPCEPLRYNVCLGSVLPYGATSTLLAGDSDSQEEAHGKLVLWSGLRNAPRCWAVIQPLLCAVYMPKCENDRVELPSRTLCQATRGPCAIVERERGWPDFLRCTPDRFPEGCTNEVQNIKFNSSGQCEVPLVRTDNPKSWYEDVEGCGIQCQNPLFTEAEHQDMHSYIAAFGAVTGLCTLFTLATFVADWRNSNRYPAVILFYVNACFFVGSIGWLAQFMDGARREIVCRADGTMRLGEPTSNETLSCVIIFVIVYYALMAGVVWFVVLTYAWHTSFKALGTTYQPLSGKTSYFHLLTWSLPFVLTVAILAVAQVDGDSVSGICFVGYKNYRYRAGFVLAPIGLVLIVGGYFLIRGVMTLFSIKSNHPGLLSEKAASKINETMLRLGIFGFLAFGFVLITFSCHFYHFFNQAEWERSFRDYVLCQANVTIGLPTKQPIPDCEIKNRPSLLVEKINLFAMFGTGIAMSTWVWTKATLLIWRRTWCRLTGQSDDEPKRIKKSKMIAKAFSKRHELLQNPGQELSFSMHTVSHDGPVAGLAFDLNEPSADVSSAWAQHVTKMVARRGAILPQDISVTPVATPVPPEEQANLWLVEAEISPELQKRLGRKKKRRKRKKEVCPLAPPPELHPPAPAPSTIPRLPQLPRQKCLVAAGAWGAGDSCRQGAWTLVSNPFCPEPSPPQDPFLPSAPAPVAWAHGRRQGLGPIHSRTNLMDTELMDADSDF
On to “3-benzo[1,3]dioxol-5-yl-1-(2,4,5-trimethoxy-phenyl)-propan-1-one [Compound 7]”, for which the IC50 – broadly, the midpoint of a concentration-inhibition curve – was determined as 38.5 ± 3.57 µM. Still for that read-out and setting: under `CC1=C[C@@H]2c3c(O)cc(/C=C/c4ccc(O)cc4O)cc3OC3(c4ccc(O)c5c4OC(C)(C)C=C5)Oc4cc(O)ccc4[C@@H](C1)[C@H]23` (stereo partly drawn) [Compound 6, (3aS,13bS,13cR)-6-[(E)-2-(2,4-dihydroxyphenyl)vinyl]-8a-(5-hydroxy-2,2-dimethyl-2H-chromen-8-yl)-2-methyl-1,8a,13b,13c-tetrahydro-3aH-benzo[3,4]isochromeno[1,8-bc]chromene-4,11-diol] stands 30 ± 1.93 µM; under `CC(C)=CCc1c(O)ccc(C(=O)[C@H]2[C@@H](c3c(O)cc(/C=C/c4ccc(O)cc4O)cc3O)C=C(C)C[C@@H]2c2ccc(O)cc2O)c1O` [Compound 8, [2,4-dihydroxy-3-(3-methyl-2-buten-1-yl)phenyl][(1R,2S,6S)-6-(2,4-dihydroxyphenyl)-2-{4-[(E)-2-(2,4-dihydroxyphenyl)vinyl]-2,6-dihydroxyphenyl}-4-methyl-3-cyclohexen-1-yl]methanone], 27.5 ± 2.67 µM. As to `COc1cc(OC)c2c(=O)c(-c3ccc4c(c3)OCO4)coc2c1` [Compound 9, 3-(1,3-benzodioxol-5-yl)-5,7-dimethoxy-4H-chromen-4-one], the IC50 amounted to 24.1 ± 1.6 µM.

As to `COc1ccc(C=CC(=O)c2c(OC)cc(OC)c(OC)c2OC)cc1OC` [Compound 10, 3-(3,4-dimethoxy-phenyl)-1-(2,3,4,6-tetramethoxy-phenyl)-2-propen-1-one], the IC50 stood at 31.3 ± 2.29 µM. The same measure, in the same setting: under `COc1c(C2COc3cc(O)c(CC=C(C)C)c(O)c3C2=O)ccc(O)c1CC=C(C)C` (stereo not shown) [Compound 11, 5,7-dihydroxy-3-[4-hydroxy-2-methoxy-3-(3-methyl-2-buten-1-yl)phenyl]-6-(3-methyl-2-buten-1-yl)-2,3-dihydro-4H-chromen-4-one] stands 22.6 µM.

The next test concerns the target T1, human Smo D473H (Homo sapiens, UniProt Q99835, D473H).
T1 construct: Myc-DDK; expressed in transfected cells; host or cells: HEK293T
The test can be described thus: Bodipy-Cyclopamine (BC) binding assay, HEK293T cells transfected with human Smo D473H. As to conditions: resistant Smo mutants versus WT. The method, then: Cells were washed in PBS supplemented with 0.5% fetal bovine serum, fixed in 4% paraformaldehyde in phosphate-buffered saline (PBS) for 10 min, and incubated for 2 h at 37 °C both in the same medium supplemented with Bodipy-Cyclopamine (5 nM) and the studied compounds. The cells were permeabilized with Triton X100 (Sigma) 0.2%. Dako Fluorescent mounting (Dako, Carpinteria, CA, USA) was used as mounting medium and Hoechst reagent for staining of the cell nuclei. Bodipy (green) and Hoechst (blue) signals were analyzed in three to four representative fields per coverslip (× 20 magnification, 1000 cells/field). Data were expressed as percentage of BC incorporation observed with BC alone.[95]
For the molecule `CS(=O)(=O)c1ccc(C(=O)Nc2ccc(Cl)c(-c3ccccn3)c2)c(Cl)c1` [Vismodegib, reference compound], the “loss of affinity for the resistant Smo mutants in binding assay” value was “about 1000 fold”.

The values above are taken from paper PMC5059851, “Inhibition of Hedgehog-dependent tumors and cancer stem cells by a newly identified naturally occurring chemotype” (Cell Death & Disease, 2016).
